# Article PMC9226319, “Peripherally restricted transthyretin-based delivery system for probes and therapeutics avoiding opioid-related side effects” (Nature Communications, 2022)
# Several values for one entry are separate records, joined by “and”; a condition that tells them apart may be missing. Identical values can stand only once. Like-named read-outs stand apart in the source and are kept apart here.
# Columns and labels:
# [1] = target: T1, kappa opioid receptor (rat) (Rattus norvegicus, UniProt P34975); conditions: read-out: binding affinity to kappa-opioid receptor (Ki); cited from earlier work
# T1 construct: Eurofins Cerep (France)
# in vitro = conditions: human, % Cell viability, replicates
# male Sprague-Dawley rats [2] = assay: Gastrointestinal (GI) transit (charcoal meal) assays; type: in vivo, rat
# male Sprague-Dawley rats [3] = conditions: rat, in vivo, sc
# in vivo [4] = conditions: male, Sprague Dawley, rat, sc
# TTR in human serum = TTR in human serum (Homo sapiens, UniProt P02766); assay: TTR serum fluorescent probe exclusion (FPE) selectivity assay; type: binding; conditions: ligand 10 µM; for %FPE probe fluorescence: human serum, replicates
# in vivo [5] = conditions: male, Sprague Dawley, rat, iv
# in vivo [6] = conditions: male, Sprague Dawley, rat, iv; remark: listed apart in the source
# [7] = rat; for plasma concentration: SC 16 µmol/kg, individual animals
# [8] = rat; for plasma concentration: IV 4.84 µmol/kg, individual animals
# T1 sequence (P34975 whole entry): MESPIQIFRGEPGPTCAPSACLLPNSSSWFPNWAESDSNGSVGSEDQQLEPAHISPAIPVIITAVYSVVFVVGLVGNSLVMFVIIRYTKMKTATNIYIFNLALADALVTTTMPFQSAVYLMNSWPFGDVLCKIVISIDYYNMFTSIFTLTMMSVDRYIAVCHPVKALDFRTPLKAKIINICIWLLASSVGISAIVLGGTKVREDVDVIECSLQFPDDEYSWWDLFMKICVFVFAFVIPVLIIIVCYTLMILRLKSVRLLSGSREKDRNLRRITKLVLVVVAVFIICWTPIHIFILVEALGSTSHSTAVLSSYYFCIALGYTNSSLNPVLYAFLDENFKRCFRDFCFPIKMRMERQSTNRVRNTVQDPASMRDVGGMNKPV
smiles,measurement,setting,value
"C=CCN1CC[C@]23c4c5ccc(O)c4O[C@H]2[C@@H](OCCOCCOCCOCCOCCOCCOCCOC)CC[C@@]3(O)[C@H]1C5 [Naloxegol, reference compound]",Ki,[1],8.7 nM
same,"viability at 72 h, 10 µM",in vitro; 10 μM,103%
same,"viability at 72 h, 100 µM",in vitro; 100 μM,99%
same,GI transit 2.5h as % of saline group,"male Sprague-Dawley rats [2]; 3.5 μmol/kg, 2.5h, individual animals (Fig.9b)",41.7% and 40.4% and 35.2% and 39.7% and 39.3% and 42.0%
same,GI transit as % of saline group,"male Sprague-Dawley rats [2]; rat, in vivo, sc",39.7 ± 2.5%
same,hot plate latency,male Sprague-Dawley rats [3],17.6 ± 4.0 s
same,AUC(0-inf),in vivo [4]; 16 umol/kg,3.68 ± 0.566 µM·h
same,CL/F,in vivo [4]; 16 umol/kg,72.8 mL/min/kg
same,Vd/F,in vivo [4]; 16 umol/kg,5.58 ± 0.96 L/kg
same,half-life,in vivo [4]; 16 umol/kg,0.88 ± 0.02 h
same,concentration at 0.25 h,"in vivo [4]; 16 µmol/kg, plasma concentration, SC 16 µmol/kg, 0.25 h, individual animals",1930 nM
same,concentration at 0.5 h,"in vivo [4]; 16 µmol/kg, plasma concentration, SC 16 µmol/kg, 0.5 h, individual animals",2470 nM
same,concentration at 0.75 h,"in vivo [4]; 16 µmol/kg, plasma concentration, SC 16 µmol/kg, 0.75 h, individual animals",2870 nM
same,concentration at 1 h,"in vivo [4]; 16 µmol/kg, plasma concentration, SC 16 µmol/kg, 1 h, individual animals",1970 nM
same,concentration at 2 h,"in vivo [4]; 16 µmol/kg, plasma concentration, SC 16 µmol/kg, 2 h, individual animals",548 nM
same,% TTR occupancy in human serum,"TTR in human serum; FPE probe 3.6 µM, 3 h reading relative to probe alone, text mean ± s.d., table replicates",14.09% and 13.76% and 18.08% and 17.39%
same,%FPE probe fluorescence,TTR in human serum; time 0.000 h,0.000%
same,%FPE probe fluorescence,TTR in human serum; time 0.083 h,-1.162% and 0.076% and 1.061% and 2.494%
same,%FPE probe fluorescence,TTR in human serum; time 0.250 h,12.642% and 13.881% and 14.653% and 16.580%
same,%FPE probe fluorescence,TTR in human serum; time 0.500 h,29.770% and 29.601% and 35.277% and 32.978%
same,%FPE probe fluorescence,TTR in human serum; time 1.000 h,51.856% and 49.775% and 51.097% and 53.857%
same,%FPE probe fluorescence,TTR in human serum; time 1.250 h,58.967% and 56.462% and 55.901% and 61.434%
same,%FPE probe fluorescence,TTR in human serum; time 1.500 h,63.979% and 62.154% and 61.352% and 66.100%
same,%FPE probe fluorescence,TTR in human serum; time 1.750 h,70.669% and 69.322% and 65.355% and 73.049%
same,%FPE probe fluorescence,TTR in human serum; time 2.000 h,72.778% and 74.065% and 70.075% and 75.601%
same,%FPE probe fluorescence,TTR in human serum; time 2.250 h,79.286% and 77.129% and 72.043% and 79.051%
same,%FPE probe fluorescence,TTR in human serum; time 2.500 h,80.847% and 80.185% and 76.560% and 80.986%
same,%FPE probe fluorescence,TTR in human serum; time 2.750 h,84.987% and 82.916% and 77.033% and 84.908%
same,%FPE probe fluorescence,TTR in human serum; time 3.000 h,85.911% and 86.240% and 81.919% and 82.607%
same,%FPE probe fluorescence,TTR in human serum; time 3.500 h,89.826% and 88.173% and 84.101% and 88.948%
same,%FPE probe fluorescence,TTR in human serum; time 3.750 h,85.342% and 89.201% and 87.815% and 89.262%
same,%FPE probe fluorescence,TTR in human serum; time 4.000 h,92.972% and 91.077% and 85.636% and 94.755%
same,%FPE probe fluorescence,TTR in human serum; time 4.250 h,92.674% and 90.338% and 87.389% and 92.827%
same,%FPE probe fluorescence,TTR in human serum; time 4.500 h,93.747% and 95.743% and 86.912% and 94.592%
same,%FPE probe fluorescence,TTR in human serum; time 4.750 h,93.049% and 92.357% and 88.468% and 95.740%
same,%FPE probe fluorescence,TTR in human serum; time 5.000 h,94.380% and 93.149% and 88.822% and 94.667%
same,%FPE probe fluorescence,TTR in human serum; time 5.250 h,94.178% and 93.087% and 90.315% and 94.928%
same,%FPE probe fluorescence,TTR in human serum; time 5.500 h,92.258% and 94.965% and 88.366% and 97.216%
same,%FPE probe fluorescence,TTR in human serum; time 5.750 h,93.772% and 93.937% and 90.079% and 96.029%
same,%FPE probe fluorescence,TTR in human serum; time 6.000 h,96.902% and 93.100% and 91.727% and 96.188%
same,Kp,in vivo [5]; percentage CSF to plasma ratio,0.15
same,Kp,in vivo [5]; percentage brain to plasma ratio,0.29
same,AUC(0-inf),in vivo [6]; 4.84 umol/kg,0.741 ± 0.0336 µM·h
same,Vd,in vivo [6]; 4.84 umol/kg,2.76 ± 0.39 L/kg
same,clearance,in vivo [6]; 4.84 umol/kg,109 mL/min/kg
same,half-life,in vivo [6]; 4.84 umol/kg,1.72 ± 0.27 h
same,concentration at 0.03 h,"in vivo [6]; 4.84 µmol/kg, plasma concentration, IV 4.84 µmol/kg, 0.03 h, individual animals",1900 nM
same,concentration at 0.5 h,"in vivo [6]; 4.84 µmol/kg, plasma concentration, IV 4.84 µmol/kg, 0.5 h, individual animals",206 nM
same,concentration at 2 h,"in vivo [6]; 4.84 µmol/kg, plasma concentration, IV 4.84 µmol/kg, 2 h, individual animals",17.8 nM
same,concentration at 4 h,"in vivo [6]; 4.84 µmol/kg, plasma concentration, IV 4.84 µmol/kg, 4 h, individual animals",9.2 nM
same,concentration at 8 h,"in vivo [6]; 4.84 µmol/kg, plasma concentration, IV 4.84 µmol/kg, 8 h, individual animals",2.5 nM
same,plasma concentration,[7]; 0.03 h,247 nM and 451 nM and 135 nM
same,plasma concentration,[7]; 0.25 h,1100 nM and 1090 nM
same,plasma concentration,[7]; 0.5 h,1750 nM and 2300 nM
same,plasma concentration,[7]; 0.75 h,1870 nM and 2090 nM
same,plasma concentration,[7]; 1 h,1410 nM and 2160 nM
same,plasma concentration,[7]; 2 h,517 nM and 744 nM
same,plasma concentration,[7]; 4 h,95.6 nM and 149 nM and 239 nM
same,plasma concentration,[7]; 6 h,19 nM and 31.8 nM and 56.3 nM
same,plasma concentration,[7]; 8 h,3.9 nM and 6.7 nM and 10.6 nM
same,k,[7]; single SC dose 16 µmol/kg,0.79 ± 0.02 h⁻¹
same,plasma concentration,[8]; 0.03 h,2193.9 nM and 2301.3 nM
same,plasma concentration,[8]; 0.5 h,144.7 nM and 149.7 nM
same,plasma concentration,[8]; 1 h,58 nM and 27.2 nM and 41.1 nM
same,plasma concentration,[8]; 2 h,16.1 nM and 15.5 nM
same,plasma concentration,[8]; 4 h,4.6 nM and 6.8 nM
same,plasma concentration,[8]; 6 h,1.8 nM and 4 nM and 5.8 nM
same,plasma concentration,[8]; 8 h,2.3 nM and 1.4 nM
same,k,[8]; single IV bolus 4.84 µmol/kg,0.41 ± 0.06 h⁻¹
